Consider seven compounds from patent US7642245B2, “Antibacterial compounds having a (pyrrole carboxamide)-(benzamide)-(imidazole carboxamide) motif” (Oscient Pharmaceuticals Corporation, priority 2002, dated 2010).

For one assay, the system named is E. coli ATCC 25922. Description: MIC, NCCLS broth microdilution. Format: cell-based, Escherichia coli. Conditions: G = E. coli ATCC 25922. The method in brief: (§1)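 Minimal inhibitory concentration determined by NCCLS broth microdilution in microtiter plates per documents M7-A4, M11-A4 and M27-T. S. aureus ATCC 27660 is a methicillin-resistant strain. The antifungal test on C. albicans followed the method recommended in the Manual of Clinical Microbiology (1995).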
On the technique in general: Broth dilution looks for growth in wells or tubes with falling amounts of substance.

In another assay the test system is B. cereus ATCC 11778. Description: MIC, NCCLS broth microdilution. Format: cell-based, Bacillus cereus. The conditions noted are these: D = B. cereus ATCC 11778. Summed up: (§2)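 Broth microdilution, NCCLS M7-A4/M11-A4/M27-T guidelines; read-out MIC. MRSA strain for S. aureus. Candida: Manual of Clinical Microbiology method.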
The test system of another assay is C. albicans ATCC 38247. Description: MIC, antifungal assay. The conditions noted are these: F = C. albicans ATCC 38247. The class given is cell-based, Candida albicans. Summed up: as §2
The next assay has as its system E. faecalis ATCC 29212. Description: MIC, NCCLS broth microdilution. The class given is cell-based, Enterococcus faecalis. Conditions: C = E. faecalis ATCC 29212. The method in brief:
as §1

A further assay relates to S. aureus ATCC 13709. Description: MIC, NCCLS broth microdilution. Format: cell-based, Staphylococcus aureus. The conditions noted are these: A = S. aureus ATCC 13709 (MSSA). The method in brief:
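Compounds were serially diluted in broth and tested against each strain according to NCCLS guidelines, with MIC taken as the endpoint. C. albicans was assayed per the Manual of Clinical Microbiology.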

The next assay relates to S. aureus ATCC 27660. Description: MIC, NCCLS broth microdilution. The class given is cell-based, Staphylococcus aureus. The conditions noted are these: B = S. aureus ATCC 27660 (MRSA). The method in brief:
as §2

Assay [1] deals with M. catarrhalis (ATCC 25238). Description: MIC, NCCLS broth microdilution. Format: cell-based, Moraxella (now Branhamella) catarrhalis. The conditions noted are these: H = M. catarrhalis (ATCC 25238). Summed up: as §2
The subject of a further assay is S. pneumoniae ATCC 49619. The experiment in a line: MIC, NCCLS broth microdilution. Format: cell-based, Streptococcus pneumoniae. Conditions: E = S. pneumoniae ATCC 49619. The method in brief:
as §1

For the compound `COCCNCCNC(=O)c1nc(NC(=O)c2ccc(NC(=O)c3cc(NC(=O)c4cc5ccccc5cn4)cn3C)cc2)cn1C` [Compound A-28], the “Minimum Inhibitory Concentration (MIC)” value is listed as “++ (4 < MIC < 12 μg/mL)” with E. coli ATCC 25922; “+++ (MIC ≦ 4 μg/mL)” with B. cereus ATCC 11778; “+ (12 ≦ MIC ≦ 32 μg/mL)” in the assay on C. albicans ATCC 38247; “+++ (MIC ≦ 4 μg/mL)” in the assay on E. faecalis ATCC 29212; “+++ (MIC ≦ 4 μg/mL)” with S. aureus ATCC 13709; “+++ (MIC ≦ 4 μg/mL)” in the assay with S. aureus ATCC 27660. Moreover, the “Minimum Inhibitory Concentration (MIC)” value (in assay [1]; with S. pneumoniae ATCC 49619) was “+++ (MIC ≦ 4 μg/mL)” throughout.

Take `Cn1cc(NC(=O)c2cc3ccccc3cn2)cc1C(=O)Nc1ccc(C(=O)Nc2cn(C)c(C(=O)NCCN3CCC(OC(=O)CCN(CCO)CCO)CC3)n2)cc1` [Compound A-57]: the “Minimum Inhibitory Concentration (MIC)” value is “++ (4 < MIC < 12 μg/mL)” in the assay with E. coli ATCC 25922; “+++ (MIC ≦ 4 μg/mL)” with B. cereus ATCC 11778; greater than 32 µg/mL with C. albicans ATCC 38247; “+++ (MIC ≦ 4 μg/mL)” with E. faecalis ATCC 29212; “+++ (MIC ≦ 4 μg/mL)” with S. aureus ATCC 13709; “+++ (MIC ≦ 4 μg/mL)” in the assay with S. aureus ATCC 27660. Besides, the “Minimum Inhibitory Concentration (MIC)” value (in assay [1]; with S. pneumoniae ATCC 49619) was “+++ (MIC ≦ 4 μg/mL)” each time.

As for `Cn1cc(NC(=O)c2cc3ccccc3cn2)cc1C(=O)Nc1ccc(C(=O)Nc2cn(C)c(C(=O)NCCN3CCC(OC(=O)CCN4CCOCC4)CC3)n2)cc1` [Compound A-59], the “Minimum Inhibitory Concentration (MIC)” value is greater than 32 µg/mL in the assay with E. coli ATCC 25922; “+++ (MIC ≦ 4 μg/mL)” with B. cereus ATCC 11778; greater than 32 µg/mL in the assay with C. albicans ATCC 38247; “+++ (MIC ≦ 4 μg/mL)” with E. faecalis ATCC 29212; “+++ (MIC ≦ 4 μg/mL)” in the assay on S. aureus ATCC 13709; “+++ (MIC ≦ 4 μg/mL)” in the assay with S. aureus ATCC 27660. Also, the “Minimum Inhibitory Concentration (MIC)” value (in assay [1]; with S. pneumoniae ATCC 49619) was “+++ (MIC ≦ 4 μg/mL)” in each case.

As to `CC(C)N1CCN(CCNC(=O)c2nc(NC(=O)c3ccc(NC(=O)c4cc(NC(=O)c5cc6ccccc6cn5)cn4C)cc3)cn2C)CC1` [Compound A-15], the “Minimum Inhibitory Concentration (MIC)” value is greater than 32 µg/mL in the assay with E. coli ATCC 25922; “+++ (MIC ≦ 4 μg/mL)” in the assay with B. cereus ATCC 11778; greater than 32 µg/mL in the assay on C. albicans ATCC 38247; “+++ (MIC ≦ 4 μg/mL)” in the assay on E. faecalis ATCC 29212; “+++ (MIC ≦ 4 μg/mL)” with S. aureus ATCC 13709; “+++ (MIC ≦ 4 μg/mL)” with S. aureus ATCC 27660. Moreover, the “Minimum Inhibitory Concentration (MIC)” value (in assay [1]; in the assay on S. pneumoniae ATCC 49619) was “+++ (MIC ≦ 4 μg/mL)” throughout.

As to `Cn1cc(NC(=O)c2cc3ccccc3cn2)cc1C(=O)Nc1ccc(C(=O)Nc2cn(C)c(C(=O)NCCN3CCN(CCO)CC3)n2)cc1` [Compound A-27], the “Minimum Inhibitory Concentration (MIC)” value in the assay on E. coli ATCC 25922 is greater than 32 µg/mL; in the assay on B. cereus ATCC 11778, “+++ (MIC ≦ 4 μg/mL)”; in the assay with C. albicans ATCC 38247 it was greater than 32 µg/mL; with E. faecalis ATCC 29212 it was “+++ (MIC ≦ 4 μg/mL)”; with S. aureus ATCC 13709, “+++ (MIC ≦ 4 μg/mL)”; with S. aureus ATCC 27660, “+++ (MIC ≦ 4 μg/mL)”. Moreover, the “Minimum Inhibitory Concentration (MIC)” value (in assay [1]; in the assay with S. pneumoniae ATCC 49619) was “+++ (MIC ≦ 4 μg/mL)” in each case.

For `COCCCNCCNC(=O)c1nc(NC(=O)c2ccc(NC(=O)c3cc(NC(=O)c4cc5ccccc5cn4)cn3C)cc2)cn1C` [Compound A-39], the “Minimum Inhibitory Concentration (MIC)” value in the assay with E. coli ATCC 25922 was greater than 32 µg/mL; in the assay with B. cereus ATCC 11778, “+++ (MIC ≦ 4 μg/mL)”; in the assay with C. albicans ATCC 38247, greater than 32 µg/mL; in the assay with E. faecalis ATCC 29212, “+++ (MIC ≦ 4 μg/mL)”; in the assay on S. aureus ATCC 13709, “+++ (MIC ≦ 4 μg/mL)”; with S. aureus ATCC 27660, “+++ (MIC ≦ 4 μg/mL)”. Besides, the “Minimum Inhibitory Concentration (MIC)” value is greater than 32 µg/mL in assay [1] and “+++ (MIC ≦ 4 μg/mL)” in the assay with S. pneumoniae ATCC 49619.

`Cn1cc(NC(=O)c2cc3ccccc3cn2)cc1C(=O)Nc1ccc(C(=O)Nc2cn(C)c(C(=O)NCCN3CCCC(O)C3)n2)cc1` (centres unmarked) [Compound A-72]: the “Minimum Inhibitory Concentration (MIC)” value in the assay on E. coli ATCC 25922 was greater than 32 µg/mL; in the assay on B. cereus ATCC 11778, “+++ (MIC ≦ 4 μg/mL)”; in the assay on C. albicans ATCC 38247 it was greater than 32 µg/mL; in the assay on E. faecalis ATCC 29212, “+++ (MIC ≦ 4 μg/mL)”; in the assay with S. aureus ATCC 13709, “+++ (MIC ≦ 4 μg/mL)”; in the assay on S. aureus ATCC 27660, “+++ (MIC ≦ 4 μg/mL)”. In addition, the “Minimum Inhibitory Concentration (MIC)” value (in assay [1]; in the assay on S. pneumoniae ATCC 49619) was “+++ (MIC ≦ 4 μg/mL)” in each case.
